Data on seven compounds can be found in patent publication US6710088B2 (NPS Pharmaceuticals, Inc., priority 1996, dated 2004).

Structures can show the parent of a compound that is named as a salt.

Usually EC50 stands for the midpoint of the concentration-response curve.

The target in the assay is T1, calcium receptor (Homo sapiens, UniProt P41180).
T1 construct: expressed in transfected cells; host or cells: HEK 293 4.0-7
T1 sequence (P41180 20-1078): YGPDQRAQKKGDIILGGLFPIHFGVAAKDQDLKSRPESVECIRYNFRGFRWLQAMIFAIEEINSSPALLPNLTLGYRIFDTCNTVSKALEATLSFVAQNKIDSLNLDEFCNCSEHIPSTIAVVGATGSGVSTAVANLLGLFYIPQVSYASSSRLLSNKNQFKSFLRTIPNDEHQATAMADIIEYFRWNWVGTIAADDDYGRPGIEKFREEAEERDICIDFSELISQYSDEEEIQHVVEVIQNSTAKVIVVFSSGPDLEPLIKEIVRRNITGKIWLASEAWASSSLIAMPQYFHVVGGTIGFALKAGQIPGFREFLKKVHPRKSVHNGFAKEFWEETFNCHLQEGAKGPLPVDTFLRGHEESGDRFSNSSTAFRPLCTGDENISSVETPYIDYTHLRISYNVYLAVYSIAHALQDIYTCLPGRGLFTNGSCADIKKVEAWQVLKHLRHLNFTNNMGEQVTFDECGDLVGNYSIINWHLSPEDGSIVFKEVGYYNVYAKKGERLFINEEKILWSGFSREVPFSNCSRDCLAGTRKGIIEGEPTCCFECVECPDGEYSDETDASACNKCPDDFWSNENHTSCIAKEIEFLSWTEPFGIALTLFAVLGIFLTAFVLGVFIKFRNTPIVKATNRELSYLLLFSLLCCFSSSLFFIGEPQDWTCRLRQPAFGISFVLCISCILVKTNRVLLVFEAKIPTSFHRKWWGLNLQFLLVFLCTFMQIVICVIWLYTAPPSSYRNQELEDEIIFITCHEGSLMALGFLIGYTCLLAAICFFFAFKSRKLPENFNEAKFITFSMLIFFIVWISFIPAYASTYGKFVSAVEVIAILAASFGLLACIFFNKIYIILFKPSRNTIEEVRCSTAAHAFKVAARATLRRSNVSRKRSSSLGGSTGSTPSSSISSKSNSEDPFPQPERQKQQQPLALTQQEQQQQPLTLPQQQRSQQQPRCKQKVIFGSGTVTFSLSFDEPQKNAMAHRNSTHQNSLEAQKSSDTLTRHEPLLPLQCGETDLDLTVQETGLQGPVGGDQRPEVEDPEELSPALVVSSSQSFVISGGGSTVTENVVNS
Briefly: Calcium receptor activity in recombinant HEK 293 4.0-7 cells (fluorescence of dye-loaded cells). Conditions: recombinant HEK 293 4.0-7 cells containing a calcium receptor; 1 mM CaCl2, 1 mM MgCl2; fluorescence 340/510 nm. Type of assay: cell-based. How it is done:
Recombinant HEK 293 4.0-7 cells containing a calcium receptor were constructed as described by Rogers et al., J. Bone Miner. Res. 10 Suppl. 1:S483, 1995 (hereby incorporated by reference herein). The recombinant cells were loaded with fura-2 by incubating the cells in Dulbecco's modified Eagle's medium buffered with 20 mM HEPES containing about 5 μM […] for one hour at room temperature. Cells were then rinsed with Hank's balanced salt solution buffered with 20 mM HEPES containing 1 mM CaCl2 and 1 mM MgCl2. Compounds to be tested were then added to the cells and fluorescence was measured (excitation and emission wavelengths of 340 and 510 nm, respectively).
On to `CC[C@@H](N[C@H](C)c1cccc2ccccc12)c1ccc(OC)c(C)c1` [Compound 26F, hydrochloride], for which the EC50 is 0.015 µM.

For the compound `C[C@@H](NCC=Cc1ccccc1)c1cccc2ccccc12` [Compound 26H, (R)-N-(3-phenyl-2-propenyl)-1-(1-naphthyl)ethylamine hydrochloride], the EC50 came out at 0.036 µM.

For “(R,R)-N-(1-Ethyl-4′-methoxy-3′-bromophenyl)-1-(1-naphthyl)ethylamine hydrochloride [Compound 26G]”, the EC50 is 0.011 µM.

Consider `CCOc1ccc([C@@H](C)N[C@H](C)c2cccc3ccccc23)cc1C` [Compound 26E, hydrochloride], for which the EC50 turned out to be 0.077 µM.

As to `CC(=Cc1ccccc1)CN[C@H](C)c1cccc2ccccc12` [Compound 26I, (R)-N-(2-methyl-3-phenyl-2-propenyl)-1-(1-naphthyl)ethylamine hydrochloride], the EC50 came to 0.126 µM.

Take `C[C@@H](N[C@H](C)c1cccc2ccccc12)c1ccc(I)cc1` [Compound 26D, hydrochloride]: the EC50 amounted to 0.047 µM.

For `COc1ccccc1C=CCN[C@H](C)c1cccc2ccccc12` [Compound 26J, hydrochloride], the EC50 is 0.047 µM.
